Laboratory results from PMC7932537, “Quantitative profiling of protease specificity” (PLoS Computational Biology, 2021).

Columns and labels:
MMP-2 [1] = assay: Substrate phage display with NGS: relative probability (RP) of P3-P1' tetramer clusters; assay type: biochemical, human; settings: for relative probability (RP) (acc.to MMP2): RP of matching tetramer of the cleavage site, unique part of MMP9 selectome
MMP-9 [2] = biological target: MMP-9 (Homo sapiens, UniProt P14780); assay: kcat/KM of synthetic peptides derived from substrate phage selections; assay type: biochemical; set-up: The recombinant catalytic domains of MMP-2 and -9 were expressed in HEK293 cells; made in house; host or cells: HEK293 cells, stably transfected; purified from serum-free medium on Gelatin Sepharose 4B; settings: MMP9; 100 set of synthetic hexamer peptide substrates; mean, SD and SEM in columns of their own
Sequence of MMP-9 (Homo sapiens, UniProt P14780) (P14780 94-444 limits assumed): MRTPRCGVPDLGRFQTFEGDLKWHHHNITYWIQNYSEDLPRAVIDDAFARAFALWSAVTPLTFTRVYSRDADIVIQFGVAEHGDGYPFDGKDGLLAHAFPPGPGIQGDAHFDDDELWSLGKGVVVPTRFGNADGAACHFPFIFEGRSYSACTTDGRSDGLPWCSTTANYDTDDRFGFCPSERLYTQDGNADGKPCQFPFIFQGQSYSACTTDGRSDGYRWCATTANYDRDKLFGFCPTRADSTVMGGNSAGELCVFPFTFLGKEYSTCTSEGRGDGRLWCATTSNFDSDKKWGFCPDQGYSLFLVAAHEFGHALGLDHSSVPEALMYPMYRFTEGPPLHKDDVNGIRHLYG
From the text: (§1) K(obs) obtained for each of the 1369 substrates has a range of 0 and 12,792 (M^-1 s^-1) due to the experimental conditions used in the study. So, all substrates with the true K(obs) above this value will nevertheless have a K(obs) equal to the preset maximum. With this limitation in mind, we corroborated the results using synthetic peptides, thereby extending the correlation to the entire range of kcat/KM values for each MMP. We performed a correlation analysis using a set of 100 peptides with sequences derived from substrate phage selections and their kcat/KM values were experimentally determined as described in [27] (S8 Table).
(§2) The recombinant catalytic domains of MMP-2 and -9 were expressed in HEK293 cells stably transfected with respective constructs and purified from serum-free culture medium using Gelatin Sepharose 4B (GE Healthcare) as described in [29, 35]. Following activation with APMA (Sigma-Aldrich), the amount of active enzyme was determined by active site titration using GM6001 (Sigma-Aldrich). The kcat/KM values of 100 peptides derived from phage substrates […] were determined in triplicate as described in [27].
(§3) Supplementary file pcbi.1008101.s010.xlsx: S8 Table Table of 100 peptide set derived from substrate phage selections of MMP-2 and 9, for which kcat/KM values were experimentally determined. […]

MMP-2 [3] = biological target: T1, MMP-2 (Homo sapiens, UniProt P08253); assay: as above; assay type: biochemical; settings: synthetic hexamer peptides; recombinant MMP-2 catalytic domain, APMA-activated; determined in triplicate as described in ref 27
T1 construct: The recombinant catalytic domains of MMP-2 and -9 were expressed in HEK293 cells; made in house; host or cells: HEK293 cells, stably transfected; purified from serum-free medium on Gelatin Sepharose 4B
T1 sequence (P08253 110-446 limits assumed): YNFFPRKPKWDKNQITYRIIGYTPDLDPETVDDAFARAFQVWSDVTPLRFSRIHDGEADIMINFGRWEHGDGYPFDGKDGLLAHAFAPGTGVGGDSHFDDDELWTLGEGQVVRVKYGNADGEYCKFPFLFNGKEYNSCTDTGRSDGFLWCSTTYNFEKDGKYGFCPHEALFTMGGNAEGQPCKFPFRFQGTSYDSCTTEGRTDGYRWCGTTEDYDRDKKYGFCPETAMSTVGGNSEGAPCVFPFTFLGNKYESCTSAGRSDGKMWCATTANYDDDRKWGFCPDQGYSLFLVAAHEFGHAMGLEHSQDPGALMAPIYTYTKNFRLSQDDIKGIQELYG
From the text: as §1, §2, §3

MMP-9 [4] = assay: Substrate phage display with NGS: relative probability (RP) of P3-P1' tetramer clusters; assay type: biochemical, human; settings: for relative probability (RP) (acc.to MMP9): RP of matching tetramer of the cleavage site, unique part of MMP9 selectome
MMP-9 [5] = assay: N-terminomic (TMT) analysis of MMP-treated HEK293 secretome: isotopic enrichment of novel N-termini; assay type: biochemical, human; settings: for isotopic enrichment (log2(ratio)) (acc.to MMP9): HEK293 secretome, 750 nM MMP-9, 2 h, 37 C, TMT reporter ratio vs untreated control, LC-MS/MS, duplicate; for isotopic enrichment (log2(ratio)): MMP9 cleavages in HEK293 cell proteins, determined by LC-MS/MS, log2(ratio) range (>3σ, 2σ-3σ, 1σ-2σ)
MMP-2 [6] = assay: as above; assay type: biochemical, human; settings: HEK293 secretome, 750 nM MMP-2, 2 h, 37 C; TMT reporter ratio vs untreated control, LC-MS/MS, duplicate

DRKPKA
relative probability (RP) (MMP-2 [1]; RP of the P3-P1' tetramer cluster contained in the hexamer, 200 nM MMP-2, 2 h, 37°C, two rounds of selection): 0.3523 | kcat/Km (MMP-9 [2]): 0 M⁻¹ s⁻¹ | kcat/Km (MMP-2 [3]): 0 M⁻¹ s⁻¹ | relative probability (RP) (MMP-9 [4]; MMP9, RP of the P3-P1' tetramer contained in the hexamer substrate (substrate phage display, NGS)): 1.5839

QQPFA-SVMTDE [MS detected cleavage site in Semaphorin-3D (O95025)]
relative probability (RP) (acc.to MMP2) (MMP-2 [1]): 3.01 | isotopic enrichment (log2(ratio)) (acc.to MMP9) (MMP-9 [5]): 2.583 log2(ratio) | isotopic enrichment (log2(ratio)) (MMP-9 [5]): 2.583 | isotopic enrichment (log2(ratio)) (acc.to MMP2) (MMP-2 [6]): 0.2016 log2(ratio) | relative probability (RP) (acc.to MMP9) (MMP-9 [4]): 24.05

VVPWP-HVEGVE [MS detected cleavage site in N-acetylgalactosaminyltransferase 7 (Q86SF2)]
relative probability (RP) (acc.to MMP2) (MMP-2 [1]): 0 | isotopic enrichment (log2(ratio)) (acc.to MMP9) (MMP-9 [5]): 3.516 log2(ratio) | isotopic enrichment (log2(ratio)) (MMP-9 [5]): 3.516 | isotopic enrichment (log2(ratio)) (acc.to MMP2) (MMP-2 [6]): 1.195 log2(ratio) | relative probability (RP) (acc.to MMP9) (MMP-9 [4]): 15.08
